Measured values taken from patent US9034922B2, “Composition for maintaining function of platelets” (THE UNIVERSITY OF TOKYO, priority 2010, dated 2015).
pIC50: −log10 of the molar value.

Experiments:
[1] = biological target: T1, A disintegrin and metalloproteinase 10 (ADAM10) (Homo sapiens, UniProt O14672); assay: Enzyme inhibition experiment, ADAM10; assay type: biochemical; conditions: degree somewhat low in comparison with ADAM17
T1 construct: purchased Funakoshi Co., Ltd. 936-AD-020
T1 sequence (O14672 214-672 limits assumed): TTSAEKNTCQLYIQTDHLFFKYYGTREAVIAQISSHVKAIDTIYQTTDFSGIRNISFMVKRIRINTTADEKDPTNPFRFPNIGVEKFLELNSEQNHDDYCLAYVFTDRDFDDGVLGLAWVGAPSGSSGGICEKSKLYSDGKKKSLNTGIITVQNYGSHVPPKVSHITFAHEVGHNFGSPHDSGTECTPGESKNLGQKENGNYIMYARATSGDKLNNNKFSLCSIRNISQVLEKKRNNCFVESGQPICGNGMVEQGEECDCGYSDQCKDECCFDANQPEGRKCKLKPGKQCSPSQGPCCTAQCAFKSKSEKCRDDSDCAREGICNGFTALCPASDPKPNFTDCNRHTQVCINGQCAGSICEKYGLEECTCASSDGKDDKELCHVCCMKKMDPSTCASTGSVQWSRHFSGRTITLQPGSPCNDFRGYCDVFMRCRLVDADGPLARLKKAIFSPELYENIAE
Procedure: A disintegrin and metalloproteinase 10 (ADAM10) (manufactured by Funakoshi Co., Ltd., product code: 936-AD-020) and
TACE substrate (the same as one used in Test Example 3): excitation wavelength at 355 nm, emission wavelength at 460 nm
(§1) The enzyme reaction was carried out using the enzymes and substrates. Specifically, if necessary, the enzyme was activated in advance with APMA (final concentration 1 mmol/L, p-aminophenylmercuric acetate, manufactured by Sigma-Aldrich Co., A9563) according to information from the manufacturer. Then, in a 96-well plate for fluorescence measurement, 90 μL of an enzyme solution prepared with Assay Buffer A (50 mmol/L Tris-HCl buffer (pH 7.5) containing 200 mmol/L sodium chloride, 5 mmol/L calcium chloride, 10 μmol/L zinc sulfate, and 2 mg/mL bovine serum albumin) was mixed with 90 μL of the substrate adjusted to be 20 μmol/L with Assay Buffer B (50 mmol/L Tris-HCl buffer (pH 7.5) containing 200 mmol/L sodium chloride, 5 mmol/L calcium chloride, 10 μmol/L zinc sulfate, and 0.05% PLURONIC F-68), and incubated for reaction at 25° C. or 37° C. for several hours. Moreover, the fluorescence intensities before and after the reaction were measured using a fluorometer to determine the enzyme activity. An inhibition rate was obtained based on the enzyme activities in the presence and absence of the test substances, and the 50% inhibitory concentration (IC50) was calculated.

[2] = biological target: T2, Matrix metalloproteinase 17 (MMP-17) (Homo sapiens, UniProt Q9ULZ9); assay: Enzyme inhibition experiment, MMP-17; assay type: biochemical; conditions: 3163 substrate, 25° C., 5 hours
T2 construct: purchased Calbiochem 475940
T2 sequence (Q9ULZ9 126-298 limits assumed): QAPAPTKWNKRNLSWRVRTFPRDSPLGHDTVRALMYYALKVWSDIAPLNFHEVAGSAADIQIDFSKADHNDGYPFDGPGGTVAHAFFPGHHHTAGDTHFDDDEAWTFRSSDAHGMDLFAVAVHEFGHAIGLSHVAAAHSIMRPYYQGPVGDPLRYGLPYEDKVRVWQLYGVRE
Procedure: Matrix metalloproteinase 17 (MMP-17) (manufactured by Calbiochem, product number: 475940)
3168 substrate (MOCAc-Arg-Pro-Lys-Pro-Val-Glu-Nva-Trp-Arg-Lys(Dnp)-NH2, manufactured by Peptide Institute, Inc.): excitation wavelength at 320 nm, emission wavelength at 405 nm, and 3163 substrate (MOCAc-Pro-Leu-Gly-Leu-A2pr(Dnp)-Ala-Arg-NH2, manufactured by Peptide Institute, Inc.): excitation wavelength at 320 nm, emission wavelength at 405 nm.
as §1

[3] = system: human peripheral blood PRP (platelet-rich plasma); assay: Function-maintaining effect on human peripheral blood PRP (flow cytometry CD41/CD42b); assay type: cell-based; conditions: Test Example 12; 37° C., 24 hours or 72 hours; S-45457 50 μM, S-45282 5 μM, p38 inhibitors 40 μM
[4] = biological target: T3, Matrix metalloproteinase 2 (MMP-2) (Homo sapiens, UniProt P08253); assay: Enzyme inhibition experiment, MMP-2; assay type: biochemical; conditions: 3163 substrate, 37° C., 5 hours
T3 construct: purchased Calbiochem 444213
T3 sequence (P08253 110-660): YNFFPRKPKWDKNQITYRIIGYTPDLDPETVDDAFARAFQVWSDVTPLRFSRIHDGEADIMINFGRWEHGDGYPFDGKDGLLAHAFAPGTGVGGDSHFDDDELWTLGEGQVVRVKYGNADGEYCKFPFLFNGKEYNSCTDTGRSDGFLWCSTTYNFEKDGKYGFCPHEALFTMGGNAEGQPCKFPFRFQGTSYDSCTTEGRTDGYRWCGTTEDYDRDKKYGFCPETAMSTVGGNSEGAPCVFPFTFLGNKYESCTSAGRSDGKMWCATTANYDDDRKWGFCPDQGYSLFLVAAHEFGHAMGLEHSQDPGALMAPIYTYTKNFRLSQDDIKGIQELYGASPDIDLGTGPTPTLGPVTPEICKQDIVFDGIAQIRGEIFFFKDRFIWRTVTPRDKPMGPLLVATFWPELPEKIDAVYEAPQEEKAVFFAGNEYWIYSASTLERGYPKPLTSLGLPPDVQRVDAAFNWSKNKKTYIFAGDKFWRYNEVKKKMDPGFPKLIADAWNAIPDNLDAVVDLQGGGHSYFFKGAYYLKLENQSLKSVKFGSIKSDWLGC
Procedure: as §1, with “activity.” for “activity. An inhibition rate was obtained based on the enzyme activities in the presence and absence of the test substances, and the 50% inhibitory concentration (IC50) was calculated.”

[5] = system: ES cell-derived platelets (ADAM17-mediated GPIbα shedding); assay: Function-maintaining effect on ES cell-derived platelets in culture system (flow cytometry CD41/CD42b, platelet count)
Procedure: As human ES cells (hES cells), a KhES cell line (KhES-3) established by and provided from Institute for Frontier Medical Sciences, Kyoto University was used.
The human ES cells or the human iPS cells were seeded on the feeder cells such that the cell count was 5×10^4 to 1×10^5/10-cm dish. The cells were cultured in Iscove's Modified Dulbecco's Medium (IMDM, manufactured by Invitrogen Corp/GIBCO) supplemented with 15% FBS (product name: CELLect™ GOLD, manufactured by ICN Biomedicals Inc.), 2 mM L-glut amine (manufactured by Invitrogen Corp.), ITS supplement (10 μg/ml insulin, 5.5 mg/ml human transferrin, 5 ng/ml sodium selenite) (manufactured by Sigma-Aldrich Co.), 50 μg/ml ascorbic acid (Sigma-Aldrich Co.), 0.45 mM α-monothioglycerol (MTG, manufactured by Sigma-Aldrich Co.), and 20 ng/ml vascular endothelial growth factor (VEGF, manufactured by R&D Systems, Inc.). Further, this culturing was carried out at 37° C. in 5% CO2 and 21% O2 (atmospheric oxygen) using a CO2 incubator (product name: HERA CELL 150i, manufactured by Thermo Fisher Scientific K. K.). Then, the medium was replaced every 3 days, and the culturing was continued under the conditions until Day 15 when a large number of sac structures (sac-like structures) containing hematopoietic progenitor cells therein were observed.
Next, after detached from the dish, the sac structures were disrupted and suspended in a 3% FBS-containing phosphate buffer solution (PBS). Then, the suspension was passed through a 40-μm cell strainer (manufactured by BD). The solution thus passed through was centrifuged at 440×g for 10 minutes to collect hematopoietic progenitor cells, and the cells was counted. The hematopoietic progenitor cells were seeded on 10T1/2 cells newly prepared in a 6-well plate (6×10^5 cells/plate) exposed to 50-Gy radiation such that the number of the hematopoietic progenitor cells was 2 to 3×10^4/well. The hematopoietic progenitor cells were further cultured for 8 days in IMDM (manufactured by Invitrogen Corp/GIBCO) supplemented with 15% FBS (product name: CELLect™ GOLD, manufactured by ICN Biomedicals Inc.), 2 mM L-glutamine (manufactured by Invitrogen Corp.), ITS supplement (10 μg/ml insulin, 5.5 mg/ml transferrin, 5 ng/ml sodium selenite) (manufactured by Sigma-Aldrich Co.), 50 μg/ml ascorbic acid (manufactured by Sigma-Aldrich Co.), 0.45 mM MTG (manufactured by Sigma-Aldrich Co.), 100 ng/ml human thrombopoietin (human TPO, manufactured by PeproTech, Inc.), 50 ng/ml human stem cell factor (SCF, manufactured by PeproTech, Inc.), and 25 U/ml heparin. Thereby, megakaryocytes/platelets were induced.
Subsequently, the induced megakaryocytes/platelets were collected with an anticoagulant solution (Acid Citrate Dextrose, ACD), followed by centrifugation at 900 rpm for 10 minutes without a break. The supernatant obtained by the centrifugation was further centrifuged at 1500 rpm for 10 minutes without a break to remove the supernatant. Thereafter, the numbers of megakaryocytes and platelets in the precipitate thus obtained were analyzed by flow cytometry using antibodies for staining.
Note that, in the flow cytometry, FACS Aria manufactured by Becton, Dickinson and Company was used. As the antibodies used to stain the megakaryocytes and the platelets, used were a Phycoerythrin (PE)-modified anti-human CD42a (GPIX) antibody, a PE-modified anti-human CD42b (GPIbα) antibody, and an allophycocyanin (APC)-labelled anti-CD41a (integrin αIIbbeta3 complex, HIP8 clone) antibody (manufactured by BD Bioscience). Additionally, in order to accurately measure the absolute numbers of the megakaryocytes and the platelets, the cells were stained with these antibodies, and the analysis was conducted by flow cytometry using TruCount beads (manufactured by BD Bioscience), also.

[6] = biological target: T4, Matrix metalloproteinase 13 (MMP-13) (Homo sapiens, UniProt P45452); assay: Enzyme inhibition experiment, MMP-13; assay type: biochemical; conditions: 444221 substrate, 37° C., 4 hours
T4 construct: purchased Chemicon CC068
Procedure: Matrix metalloproteinase 13 (MMP-13) (manufactured by Chemicon, product number: CC068)
as §1, with “activity.” for “activity. An inhibition rate was obtained based on the enzyme activities in the presence and absence of the test substances, and the 50% inhibitory concentration (IC50) was calculated.”

Row | Structure (SMILES) | suppression of ADAM10 (in words) [1] | pIC50 [2] | function-maintaining effect on human peripheral blood PRP [3] | pIC50 [4] | inhibitory effect on GPIbα shedding compared with 50 μM GM6001 ([5]; Test Example 5, S-45282 at 5 μM) | inhibition of ADAM17-mediated GPIbα shedding (CD42b(+) percentage) ([5]; Test Example 5, added for 2 days or 8 days, GM6001 50 μM, S-45282 5 μM or 50 μM) | number of platelets obtained ([5]; Test Example 5, added for 2 days, 50 μM GM6001, 5 μM S-45282) | pIC50 [6] | inhibition of ADAM17-mediated GPIbα shedding ([5]; Test Example 6, 8 days, S-45457 5 μM or 50 μM, GM6001 50 μM) | toxicity to cells (total number of platelets) ([5]; Test Example 7, ES cells and differentiated cells, 1.5 to 50 μM, 8 days) | concentration dependency of inhibition of GPIbα shedding ([5]; Test Example 7, ES cells, S-45457 1.5 to 50 μM, 8 days)
1 | CC#CCOc1ccc(S(=O)(=O)CC(c2ccc(CN(CC)CC)cc2)N(O)C=O)cc1 (stereo not shown) [Compound I-1, N-[2-(4-But-2-ynyloxybenzenesulfonyl)-1-(4-diethylaminomethylphenyl)ethyl]-N-hydroxyformamide] | suppressed ADAM10 | 5.55 | strong effect of maintaining a function of human peripheral blood PRP | 6.82 | inhibitory effect equivalent to 50 μM GM6001 | inhibit ADAM17-mediated GPIbα shedding | approximately the same | 6.26 | – | – | –
2 | CC#CCOc1ccc(S(=O)(=O)CC(c2ccc(CNS(C)(=O)=O)cc2)N(O)C=O)cc1 (stereo not shown) [Compound I-4, N-{4-[2-(4-But-2-ynyloxybenzenesulfonyl)-1-(formylhydroxyamino)ethyl]benzyl}methanesulfonamide] | suppressed ADAM10 | 5.47 | capable of continuously suppressing ADAM17-mediated GPIbα (CD42b) shedding even incubated for 72 hours | 6.54 | – | – | – | 6.15 | inhibits ADAM17-mediated GPIbα shedding | low toxicity | inhibit ADAM17-mediated GPIbα shedding in a manner dependent on the added concentration
